Experimental data as given in patent US20250230154A1, “COMPOUND HAVING SHP2 PROTEIN DEGRADING ACTIVITY, AND MEDICAL USES THEREOF” (UBIX THERAPEUTICS, INC., priority 2021, published 2025).

Key:
[1] = molecular target: T1, SHP2 protein (Homo sapiens, UniProt Q06124); experiment: Measurement of SHP2 protein degradation in KYSE-520 cells (western blotting); assay type: cell-based; design: endogenous in cells; settings: 24 hours
T1 sequence (Q06124 1-593): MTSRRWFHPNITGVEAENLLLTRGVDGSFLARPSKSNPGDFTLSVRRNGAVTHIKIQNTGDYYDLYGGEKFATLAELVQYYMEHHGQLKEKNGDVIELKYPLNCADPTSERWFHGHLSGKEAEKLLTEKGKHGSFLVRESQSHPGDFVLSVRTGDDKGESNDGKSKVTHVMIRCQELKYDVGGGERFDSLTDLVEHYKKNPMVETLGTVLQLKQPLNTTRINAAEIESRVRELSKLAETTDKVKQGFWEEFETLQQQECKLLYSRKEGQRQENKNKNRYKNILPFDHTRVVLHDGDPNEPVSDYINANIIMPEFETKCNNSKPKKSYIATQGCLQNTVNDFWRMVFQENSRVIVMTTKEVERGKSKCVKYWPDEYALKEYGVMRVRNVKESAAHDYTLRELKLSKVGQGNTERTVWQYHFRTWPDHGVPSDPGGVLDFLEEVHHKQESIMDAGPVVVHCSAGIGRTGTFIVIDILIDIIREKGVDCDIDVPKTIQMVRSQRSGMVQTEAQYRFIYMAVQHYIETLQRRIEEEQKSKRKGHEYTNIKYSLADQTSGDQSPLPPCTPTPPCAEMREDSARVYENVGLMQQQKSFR
Description: Experimental Example 1: Measurement of SHP2 Protein Degradation in KYSE-520 Cells
KYSE-520 cells were treated with the synthesized Example compound, and the amount of SHP2 protein present in the cells was measured using western blotting detection. The protocol of the experiment conducted using KYSE-520 cells was as follows:
[Culture] KYSE-520 cells resuspended in RPMI1640 MEDIUM (Hyclone, SH30027.01) containing 5% FBS (Hyclone, SV30207.02) and 1% Penicillin-streptomycin (Welgene, LS 202-02) were seeded at a density of 2.5×10^5/well in a 6-well plate in an amount of 2 ml each and incubated for 2 days.
[Compound treatment] […] After 24 hours, cells were harvested. For the negative control group, DMSO diluted 1/10 to the media (3 mL DMSO+27 mL media) was added.
[Cell Lysis and Protein Quantification] Lysis buffer was prepared as follows: […] of RIPA buffer (Biosesang, RC2038-050-00)+0.5 mM PMSF (SIGMA, P7626)+1× Protease/Phosphatase Inhibitor (Cell signaling, 5872S) per well was added and placed on ice for 30 minutes (vortexing at 0 and 30 minutes, respectively). After sonication process (10 seconds pulse, 30 seconds rest, 5 cycles, 70% amplification), centrifugation (15000 g, 15 min, 4° C.) was performed, and then only the supernatant was taken and transferred to a new microtube. The sample was diluted ¼ with RIPA buffer in a 96-well plate, and mixed with A:B=50:1 of the BCA Protein Assay Kit (iNtRON, 21071). […] each of the mixture was left at 37° C. for 30 minutes, and cooled for 10 minutes. Then, absorbance was measured at 562 nm with the SYNERGY H1 microplate reader from BioTek. After making a sample by quantifying the protein with the measured value, boiling was performed at 70° C. for 10 minutes. At this time, the sample buffer used was a mixture of NuPAGE or Bolt 4× sample buffer (Invitrogen) and each 10× sample reducing agent according to the gel to be used, and RIPA buffer was used for protein dilution.
[Western blotting detection method] The same amount of sample was loaded on NuPAGE or Bolt Bis-tris 4-12% gradient gel and run (200 V, 35 minutes). It was transferred to 0.2 mm NC membrane with Trans-blot Turbo (BIO-RAD) (1.3 A constant, 25 V limit, 15 minutes). Blocking was performed at room temperature for 1 hour with Skim milk or Intercept Blocking Buffer (LI-COR, 927-60001):0.1% TBST=1:1. Anti SHPTP2 Mouse (1:500 in 5% Skim milk/TBST, size: 70 kDa, Santacruz sc-7384) was incubated overnight at 4° C., and Anti GAPDH Rabbit (1:2,000 in 5% BSA/0.2% TBST, size: 37 kDa, CST #2118) was incubated at room temperature for 1 hour 30 minutes or 3 hours. It was washed 3 times for 5 minutes each with 0.2% TBST washing buffer. Secondary antibody Anti-Rabbit IgG (1:5,000 in 5% Skim milk/0.2% TBST, CST), and IRDye® 680RD Goat anti-Rabbit IgG Secondary Antibody (1:10,000 in 5% BSA/0.2% TBST, LI-COR 926-68071) were incubated for 45 minutes on a rocker at room temperature. It was washed 5 times for 5 minutes each with 0.2% TBST washing buffer and detected with LI-COR's Odyssey. At this time, SHPTP2 was detected using SuperSignal West Pico PLUS Chemiluminescent Substrate, and house-keeping genes were also detected.
In the results of Table 4 below, Compounds 1-7, 13-19, and 21-26 are results in KYSE-520 cells, and the others are results in MV-4-11 cells.

[2] = molecular target: T1, SHP2 protein; experiment: Measurement of SHP2 protein degradation in MV-4-11 cells (western blotting); assay type: cell-based; design: endogenous in cells; host or cells: MV-4-11; settings: MV-4-11 cells, 24 hours
Summary of the method: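 SHP2 protein levels were assessed by western blotting in MV-4-11 cells after a 24 hour compound treatment. Lysates were sonicated, centrifuged, normalized by BCA assay at 562 nm, run on Bis-tris 4-12% gels, transferred to NC membrane, probed with anti-SHPTP2 (70 kDa) and anti-GAPDH (37 kDa) antibodies, and detected on LI-COR Odyssey.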

| Compound | SHP2 degradation (%) 10 nM [1] [%] | SHP2 degradation (%) 100 nM [1] [%] | SHP2 degradation (%) 1000 nM [1] [%] | SHP2 degradation (%) 10 nM [2] [%] | SHP2 degradation (%) 100 nM [2] [%] | SHP2 degradation (%) 1000 nM [2] [%] |
| --- | --- | --- | --- | --- | --- | --- |
| Cc1ncsc1-c1ccc(CNC(=O)[C@@H]2C[C@@H](O)CN2C(=O)[C@@H](NC(=O)C2(F)CC2)C(C)(C)C)c(OCCCCN2CCC(CC(=O)Nc3cccc(Sc4cnc(N5CCC(C)(CN)CC5)cn4)c3Cl)CC2)c1 [Example 7, (2S,4R)—N-(2-(4-(4-(2-((3-((5-(4-(aminomethyl)-4-methylpiperidin-1-yl)pyrazin-2-yl)thio)-2-chlorophenyl)amino)-2-oxoethyl)piperidin-1-yl)butoxy)-4-(4-methylthiazol-5-yl)benzyl)-1-((S)-2-(1-fluorocyclopropane-1-carboxamido)-3,3-dimethylbutanoyl)-4-hydroxypyrrolidine-2-carboxamide] | 25.4 | 75.2 | 93.8 | – | – | – |
| Cc1ncsc1-c1ccc(CNC(=O)[C@@H]2C[C@@H](O)CN2C(=O)[C@@H](NC(=O)C2(F)CC2)C(C)(C)C)c(OCCCCCCN2CC(C(=O)Nc3cccc(Sc4cnc(N5CCC(C)(CN)CC5)cn4)c3Cl)C2)c1 [Example 19, (2S,4R)—N-(2-((6-(3-((3-((5-(4-(aminomethyl)-4-methylpiperidin-1-yl)pyrazin-2-yl)thio)-2-chlorophenyl)carbamoyl)azetidin-1-yl)hexyl)oxy)-4-(4-methylthiazol-5-yl)benzyl)-1-((S)-2-(1-fluorocyclopropane-1-carboxamido)-3,3-dimethylbutanoyl)-4-hydroxypyrrolidine-2-carboxamide] | – | 31.5 | 78.0 | – | – | – |
| Cc1ncsc1-c1ccc(CNC(=O)[C@@H]2C[C@@H](O)CN2C(=O)[C@@H](NC(=O)C2(F)CC2)C(C)(C)C)c(OCCCCCCN2CCC(C(=O)Nc3cccc(Sc4cnc(N5CCC(C)(CN)CC5)cn4)c3Cl)CC2)c1 [Example 3, N-(3-((5-(4-(aminomethyl)-4-methylpiperidin-1-yl)pyrazin-2-yl)thio)-2-chlorophenyl)-1-(6-(2-(((2S,4R)-1-((S)-2-(1-fluorocyclopropane-1-carboxamido)-3,3-dimethylbutanoyl)-4-hydroxypyrrolidine-2-carboxamido)methyl)-5-(4-methylthiazol-5-yl)phenoxy)hexyl)piperidine-4-carboxamide] | −15.6 | 48.8 | 84.0 | – | – | – |
| Cc1ncsc1-c1ccc(CNC(=O)[C@@H]2C[C@@H](O)CN2C(=O)[C@@H](NC(=O)C2(F)CC2)C(C)(C)C)c(OCCCCCCN2CCC(CCCC(=O)Nc3cccc(Sc4cnc(N5CCC(C)(CN)CC5)cn4)c3Cl)CC2)c1 [Example 18, (2S,4R)—N-(2-((6-(4-(4-((3-((5-(4-(aminomethyl)-4-methylpiperidin-1-yl)pyrazin-2-yl)thio)-2-chlorophenyl)amino)-4-oxobutyl)piperidin-1-yl)hexyl)oxy)-4-(4-methylthiazol-5-yl)benzyl)-1-((S)-2-(1-fluorocyclopropane-1-carboxamido)-3,3-dimethylbutanoyl)-4-hydroxypyrrolidine-2-carboxamide] | −9.0 | 56.9 | 91.8 | – | – | – |
| Cc1ncsc1-c1ccc(CNC(=O)[C@@H]2C[C@@H](O)CN2C(=O)[C@@H](NC(=O)C2(F)CC2)C(C)(C)C)c(OCC2CCN(C(=O)CC(=O)Nc3cccc(Sc4ncc(N5CCC(C)(CN)CC5)nc4N)c3Cl)CC2)c1 [Example 32, (2S,4R)—N-(2-((1-(3-((3-((3-amino-5-(4-(aminomethyl)-4-methylpiperidin-1-yl)pyrazin-2-yl)thio)-2-chlorophenyl)amino)-3-oxopropanoyl)piperidin-4-yl)methoxy)-4-(4-methylthiazol-5-yl)benzyl)-1-((S)-2-(1-fluorocyclopropane-1-carboxamido)-3,3-dimethylbutanoyl)-4-hydroxypyrrolidine-2-carboxamide] | – | – | – | 75 | 95 | – |
| Cc1ncsc1-c1ccc(CNC(=O)[C@@H]2C[C@@H](O)CN2C(=O)[C@@H](NC(=O)C2(F)CC2)C(C)(C)C)c(OCC2CCN(C(=O)CCC(=O)Nc3cccc(Sc4cnc(N5CCC(C)(CN)CC5)cn4)c3Cl)CC2)c1 [Example 44, (2S,4R)—N-(2-((1-(4-((3-((5-(4-(aminomethyl)-4-methylpiperidin-1-yl)pyrazin-2-yl)thio)-2-chlorophenyl)amino)-4-oxobutanoyl)piperidin-4-yl)methoxy)-4-(4-methylthiazol-5-yl)benzyl)-1-((S)-2-(1-fluorocyclopropane-1-carboxamido)-3,3-dimethylbutanoyl)-4-hydroxypyrrolidine-2-carboxamide] | – | – | – | 71.5 | 95 | 95.5 |
| Cc1ncsc1-c1ccc(CNC(=O)[C@@H]2C[C@@H](O)CN2C(=O)[C@@H](NC(=O)C2(F)CC2)C(C)(C)C)c(OCC2CCN(C(=O)CC(=O)Nc3cccc(Sc4ncc(N5CCC(C)(N)CC5)nc4N)c3Cl)CC2)c1 [Example 30, (2S,4R)—N-(2-((1-(3-((3-((3-amino-5-(4-amino-4-methylpiperidin-1-yl)pyrazin-2-yl)thio)-2-chlorophenyl)amino)-3-oxopropanoyl)piperidin-4-yl)methoxy)-4-(4-methylthiazol-5-yl)benzyl)-1-((S)-2-(1-fluorocyclopropane-1-carboxamido)-3,3-dimethylbutanoyl)-4-hydroxypyrrolidine-2-carboxamide] | – | – | – | 71.5 | 95.5 | – |
| Cc1ncsc1-c1ccc(CNC(=O)[C@@H]2C[C@@H](O)CN2C(=O)[C@@H](NC(=O)C2(F)CC2)C(C)(C)C)c(OCCCN2CCC(CC(=O)Nc3cccc(Sc4cnc(N5CCC(C)(N)CC5)cn4)c3Cl)CC2)c1 [Example 8, (2S,4R)—N-(2-(3-(4-(2-((3-((5-(4-amino-4-methylpiperidin-1-yl)pyrazin-2-yl)thio)-2-chlorophenyl)amino)-2-oxoethyl)piperidin-1-yl)propoxy)-4-(4-methylthiazol-5-yl)benzyl)-1-((S)-2-(1-fluorocyclopropane-1-carboxamido)-3,3-dimethylbutanoyl)-4-hydroxypyrrolidine-2-carboxamide] | – | – | – | 39.5 | 92.6 | 96.5 |
